The assay deals with T1, slc26a1 (Mus musculus, UniProt P58735).
T1 construct: expressed in transfected cells; host or cells: 293 T/17 cells, transient transfection with pIRES-HIF vector (IRES-YFP, not fused)
T1 sequence (P58735 1-704): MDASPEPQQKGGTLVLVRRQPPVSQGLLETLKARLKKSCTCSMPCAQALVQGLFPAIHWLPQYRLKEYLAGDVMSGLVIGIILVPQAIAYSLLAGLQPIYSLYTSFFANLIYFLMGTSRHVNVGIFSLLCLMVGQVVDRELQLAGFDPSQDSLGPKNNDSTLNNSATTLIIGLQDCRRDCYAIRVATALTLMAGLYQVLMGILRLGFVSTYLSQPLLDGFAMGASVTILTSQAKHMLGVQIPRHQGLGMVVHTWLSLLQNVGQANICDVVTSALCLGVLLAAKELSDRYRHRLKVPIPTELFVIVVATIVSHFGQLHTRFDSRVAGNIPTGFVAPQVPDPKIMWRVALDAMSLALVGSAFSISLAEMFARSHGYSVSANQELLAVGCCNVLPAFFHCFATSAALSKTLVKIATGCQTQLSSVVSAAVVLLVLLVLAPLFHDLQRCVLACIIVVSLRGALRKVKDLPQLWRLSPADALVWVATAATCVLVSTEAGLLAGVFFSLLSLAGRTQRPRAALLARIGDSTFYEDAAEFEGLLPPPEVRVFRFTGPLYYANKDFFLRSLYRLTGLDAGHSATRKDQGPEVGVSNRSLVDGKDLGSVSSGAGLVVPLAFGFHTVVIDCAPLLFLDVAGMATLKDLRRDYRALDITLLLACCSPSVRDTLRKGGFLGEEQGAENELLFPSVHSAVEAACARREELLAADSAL
As to the kind of experiment: Selectivity: Cl-/I- exchange in 293T/17 cells transfected with slc26a1 and YFP. It counts as cell-based. As to conditions: 25 μM, 10 min preincubation. On the procedure: YFP-based cellular assays of slc26a3, slc26a4, SLC26A9, and TMEM16A function were performed as described previously ([7]). Slc26a1 and slc26a2 assays were done in transfected HEK 293 cells (see Supplemental Methods for details). Niflumic acid was used as a positive control for SLC26A isoforms ([7]). For TMEM16A, the selective small-molecule inhibitor TMinh-23 was used as a positive control ([28]). The activities of ENaC, CFTR, and CaCC were determined using well-differentiated HBE cells as described previously ([13]). Cl^–/HCO3^– exchange was measured as described previously ([7], [10], [11]). Briefly, cell cytoplasm was labeled with the pH-sensitive fluorescent dye BCECF-AM (Invitrogen), and Cl^–/HCO3^– exchange was measured in response to addition of a gluconate-containing solution to drive exchange of cytoplasmic Cl^– for extracellular HCO3^–, producing cytoplasmic alkalinization.
Slc26a1 and slc26a2 cDNA constructs
The complementar y DNA sequences of slc26a1 and slc26a2 were generated using gB LOCK gene fragments (Int egrat ed DNA technology, Coralville, IA) in the plasmid vector pIRESpuro3 (Takara, San J ose, CA). […]
PBS. […] Background-corrected, area-integrat ed single cell fluorescence was calcul ated for determination of slc26a1 / slc26a2 activit y from the rate of fluorescence quenching. […]

Take `Cc1c(Br)c(C(F)(F)F)nn1CC(=O)N1CCc2nc3cc(-c4ccccc4)[nH]n3c(=O)c2C1` [PAT1inh-B01]: the “effect on slc26a1 activity” value was “did not affect”.

For the origin of these results see publication PMC8262356, “SLC26A6-selective inhibitor identified in a small-molecule screen blocks fluid absorption in small intestine” (JCI Insight, 2021).
